Calls of active or inactive are those of the source. The rule behind the calls is not given here.
How the values were obtained:
[1] = test system: Trypanosoma brucei brucei; experiment: Antiparasitic activity against Trypanosoma brucei brucei BF427 assessed as growth inhibition after 48 hrs by Alamar blue assay; format: functional; settings: BF427, 48 h
[2] = Cytotoxicity against human CRL8155 cells assessed as growth inhibition after 48 hrs by Alamar blue assay; format: cell-based; settings: crl8155, 48 h
HepG2 = experiment: Cytotoxicity against human HepG2 cells assessed as growth inhibition after 48 hrs by Alamar blue assay; format: cell-based; settings: hepg2, 48 h
Liver [3] = experiment: Half life in human liver microsomes at 1.5 uM by LC-MS analysis; format: ADME, microsome
Liver [4] = experiment: Half life in mouse liver microsomes at 1.5 uM by LC-MS analysis; format: ADME, microsome
[5] = Ratio of drug level in brain to plasma in mouse at 5 mg/kg, ip after 1 hr by LC-MS analysis; format: ADME, organism-based
[6] = Cmax in mouse at 50 mg/kg, po by LC-MS analysis; format: ADME, organism-based; set-up: dose 50 mg/kg, route oral; settings: in vivo
[7] = AUC (0 to 8 hrs) in mouse at 50 mg/kg, po by LC-MS analysis; format: ADME, organism-based; set-up: dose 50 mg/kg, time < 8 hr, route oral; settings: in vivo
[8] = test system: Trypanosoma brucei rhodesiense; experiment: Antiparasitic activity against Trypanosoma brucei rhodesiense STIB900 infected in Swiss-Webster mouse assessed as cure rate at 50 mg/kg, bid administered via oral gavage from day 2 to 5 post infection measured after 60 days by microscopic method relative to control; format: functional
[9] = test system: Trypanosoma brucei brucei; experiment: Antiparasitic activity against Trypanosoma brucei brucei TREU667 infected in mouse assessed as decrease in parasitemia at 50 mg/kg, bid administered via oral gavage on day 21 to 34 post infection measured on day 34 by microscopic method; format: functional, organism-based
[10] = test system: Trypanosoma brucei brucei; experiment: Antiparasitic activity against Trypanosoma brucei brucei TREU667 infected in mouse assessed as decrease in parasitemia at 50 mg/kg, bid administered via oral gavage on day 21 to 34 post infection measured on day 35 by microscopic method; format: functional, organism-based
[11] = test system: Trypanosoma brucei brucei; experiment: Antiparasitic activity against Trypanosoma brucei brucei TREU667 infected in mouse assessed as decrease in parasitemia at 50 mg/kg, bid administered via oral gavage on day 21 to 34 post infection measured on day 36 by microscopic method; format: functional, organism-based
[12] = test system: Trypanosoma brucei brucei; experiment: Antiparasitic activity against Trypanosoma brucei brucei TREU667 infected in mouse assessed as decrease in parasitemia at 50 mg/kg, bid administered via oral gavage on day 21 to 34 post infection measured on day 41 to 42 by microscopic method; format: functional, organism-based
[13] = test system: Trypanosoma brucei brucei; experiment: Antiparasitic activity against Trypanosoma brucei brucei BF427 assessed as growth inhibition at 16 times EC50 pretreated for 24 hrs followed by compound washout measured after 10 days by light microscopic method; format: functional
[14] = test system: Trypanosoma brucei brucei; experiment: Antiparasitic activity against Trypanosoma brucei brucei BF427 assessed as growth inhibition at 8 times EC50 pretreated for 48 hrs followed by compound washout measured after 10 days by light microscopic method; format: functional
[15] = test system: Trypanosoma brucei brucei; experiment: Antiparasitic activity against Trypanosoma brucei brucei BF427 assessed as growth inhibition at 8 times EC50 pretreated for 72 hrs followed by compound washout measured after 10 days by light microscopic method; format: functional
[16] = test system: Trypanosoma brucei brucei; experiment: Antiparasitic activity against Trypanosoma brucei brucei BF427 assessed as growth inhibition at 4 times EC50 pretreated for 96 hrs followed by compound washout measured after 10 days by light microscopic method; format: functional
[17] = test system: Trypanosoma brucei brucei; experiment: Antiparasitic activity against Trypanosoma brucei brucei BF427 assessed as growth inhibition at 128 times EC50 pretreated for 24 hrs followed by compound washout measured after 10 days by light microscopic method; format: functional
[18] = test system: Trypanosoma brucei brucei; experiment: Antiparasitic activity against Trypanosoma brucei brucei BF427 assessed as growth inhibition at 128 times EC50 pretreated for 48 hrs followed by compound washout measured after 10 days by light microscopic method; format: functional
[19] = test system: Trypanosoma brucei brucei; experiment: Antiparasitic activity against Trypanosoma brucei brucei BF427 assessed as growth inhibition at 64 times EC50 pretreated for 72 hrs followed by compound washout measured after 10 days by light microscopic method; format: functional
[20] = test system: Trypanosoma brucei brucei; experiment: Antiparasitic activity against Trypanosoma brucei brucei BF427 assessed as growth inhibition at 64 times EC50 pretreated for 96 hrs followed by compound washout measured after 10 days by light microscopic method; format: functional
[21] = test system: Trypanosoma brucei rhodesiense; experiment: Antiparasitic activity against Trypanosoma brucei rhodesiense STIB900 assessed as growth inhibition after 48 hrs by Alamar blue assay; format: functional; settings: STIB900, 48 h
Cytochrome P450 3A4 = Cytochrome P450 3A4 (Homo sapiens, UniProt P08684); experiment: Inhibition of human CYP3A4; format: ADME
Cytochrome P450 3A4, sequence (P08684 whole entry): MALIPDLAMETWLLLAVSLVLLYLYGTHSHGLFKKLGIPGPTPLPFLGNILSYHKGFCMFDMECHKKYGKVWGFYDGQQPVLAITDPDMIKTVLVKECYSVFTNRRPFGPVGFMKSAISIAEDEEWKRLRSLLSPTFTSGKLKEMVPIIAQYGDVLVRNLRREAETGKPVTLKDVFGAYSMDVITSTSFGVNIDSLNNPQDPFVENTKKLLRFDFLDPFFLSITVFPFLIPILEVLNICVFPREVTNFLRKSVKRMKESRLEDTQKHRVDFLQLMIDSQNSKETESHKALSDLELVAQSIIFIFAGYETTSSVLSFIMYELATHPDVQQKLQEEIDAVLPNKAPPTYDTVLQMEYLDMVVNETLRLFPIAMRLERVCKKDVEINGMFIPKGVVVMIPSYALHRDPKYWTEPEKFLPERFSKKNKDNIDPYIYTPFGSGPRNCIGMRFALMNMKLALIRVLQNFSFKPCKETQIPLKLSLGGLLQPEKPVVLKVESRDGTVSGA

[22] = test system: Trypanosoma brucei rhodesiense; experiment: Antiparasitic activity against Trypanosoma brucei rhodesiense STIB900 infected in Swiss-Webster mouse assessed as parasitemia rebound time at 50 mg/kg, bid administered via oral gavage from day 2 to 5 post infection by microscopic method; format: functional
[23] = test system: Trypanosoma brucei brucei; experiment: Antiparasitic activity against Trypanosoma brucei brucei TREU667 infected in mouse assessed as decrease in parasitemia at 50 mg/kg, bid administered via oral gavage on day 21 to 34 post infection measured on day 40 by microscopic method; format: functional, organism-based

SMILES	EC50 [1]	CC50 [2]	CC50 (HepG2)	t1/2 (Liver [3])	BPR [5]	Cmax [6]	AUC(0-t) at 8 h [7]	Activity [8]	Activity [9]	Activity [10]	Activity [11]	also measured
CC(C)c1ccc(COc2ccc(N(CCN)C(=O)c3cccnc3Cl)cc2)cc1.Cl	0.002 µM	4.03 µM	10.5 µM	> 1 h	0.16	1.89 µM	12.3 µM·h	67 - 80%	Active	Active	Active	t1/2 (Liver [4]): > 1 h; Activity [12]: inactive; growth inhibition (GI) [13]: Active; growth inhibition (GI) [14]: Active; growth inhibition (GI) [15]: Active; growth inhibition (GI) [16]: Active
Cl.NCCN(C(=O)c1ccccc1C(F)(F)F)c1ccc(OCc2ccc(Cl)cc2)cc1	0.007 µM	3.08 µM	5.72 µM	> 1 h	0.88	1.67 µM	10.3 µM·h	33%	–	–	–	growth inhibition (GI) [17]: Active; growth inhibition (GI) [18]: Active; growth inhibition (GI) [19]: Active; growth inhibition (GI) [20]: Active
CC(C)c1ccc(COc2ccc(N(CCN)C(=O)c3cccnc3C(F)(F)F)cc2)cc1.Cl	0.001 µM	2.03 µM	3.83 µM	> 1 h	0.23	1 µM	5.58 µM·h	67 - 80%	Active	Active	Active	EC50 [21]: 0.002 µM; IC50 (Cytochrome P450 3A4): 0.144 µM; Time [22]: 31 days; Activity [23]: inactive

From ChEMBL document CHEMBL4000252, “Discovery of N-(2-aminoethyl)-N-benzyloxyphenyl benzamides: New potent Trypanosoma brucei inhibitors” (Bioorg Med Chem, 2017)
